From patent US8846928B2 (Portola Pharmaceuticals, Inc., priority 2010, dated 2014)
pIC50: −log10 of the molar value.

biological target: T1, full length active recombinant SYK enzyme (Homo sapiens, UniProt P43405); assay: Inhibition of Syk tyrosine phosphorylation activity (LANCE TR-FRET kinase assay); assay type: biochemical
T1 construct: full length active recombinant SYK enzyme (Millipore, Calif.); purchased Millipore

`NC(=O)c1cc(F)c(N[C@@H]2CCCC[C@@H]2N)nc1Nc1cccc(-n2nccn2)c1` [Example 41, 2-(3-(2H-1,2,3-triazol-2-yephenylamino)-6-(1R,2S)-2-aminocyclohexylamino)-5-fluoronicotinamide] and `NC(=O)c1cc(F)c(N[C@@H]2CCCC[C@@H]2N)nc1Nc1cccc(-n2cnnn2)c1` [Example 44, 2-(3-(1H-tetrazol-1-yl)phenylamino)-6-((1R,2S)-2-aminocyclohexylamino)-5-fluoronicotinamide] fall in the same range of pIC50: 8.00 to 9.00 for the first, 8.00 to 9.00 for the second.

`Cc1ccc(Nc2nc(N[C@@H]3CCOC[C@@H]3N)c(F)cc2C(N)=O)cc1` [Example 349, 6-((3R,4R)-3-aminotetrahydro-2H-pyran-4-ylamino)-5-fluoro-2-(p-tolylamino)nicotinamide] and `NC(=O)c1cc(F)c(N[C@@H]2CCCC[C@@H]2N)nc1Nc1ccc(OC2CCOCC2)cc1` [Example 81, 6-((1R,2S)-2-aminocyclohexylamino)-5-fluoro-2-(4-(tetrahydro-2H-pyran-4-yloxy)phenylamino)nicotinamide] fall in the same range of pIC50: 7.00 to 8.00 for the first, 7.00 to 8.00 for the second.

`CC[C@@H](Nc1nc(Nc2cnc3ccccc3c2)c(C(N)=O)cc1F)C(N)=O` [Example 227, (R)-6-(1-amino-1-oxobutan-2-ylamino)-5-fluoro-2-(quinolin-3-ylamino)nicotinamide] and `CC[C@@H](Nc1nc(Nc2cccc3ncccc23)c(C(N)=O)cc1F)C(N)=O` [Example 245, (R)-6-(1-amino-1-oxobutan-2-ylamino)-5-fluoro-2-(quinolin-5-ylamino)nicotinamide] fall in the same range of pIC50: 7.00 to 8.00 for the first, 7.00 to 8.00 for the second.

`Cc1cncc(Nc2nc(N[C@@H]3CCCC(F)(F)[C@@H]3N)c(F)cc2C(N)=O)c1` [Example 332, 6-((1R,2R)-2-amino-3,3-difluorocyclohexylamino)-5-fluoro-2-(5-methylpyridin-3-ylamino)nicotinamide] and `NC(=O)c1cc(F)c(N[C@@H]2CCCC(F)(F)[C@@H]2N)nc1Nc1cccc2ncccc12` [Example 327, 6-((1R,2R)-2-amino-3,3-difluorocyclohexylamino)-5-fluoro-2-(quinolin-5-ylamino)nicotinamide] fall in the same range of pIC50: 6.00 to 7.00 for the first, 6.00 to 7.00 for the second.

Compared with `CN1C(=O)Cc2c(Nc3nc(N[C@@H]4CCCC(F)(F)[C@@H]4N)c(F)cc3C(N)=O)cccc21` [Example 395, 6-((1R,2R)-2-amino-3,3-difluorocyclohexylamino)-5-fluoro-2-(1-methyl-2-oxoindolin-4-ylamino)nicotinamide], `NC(=O)c1ccc(N[C@@H]2CCCC[C@@H]2N)nc1Nc1cccc2ncsc12` [Example 401, 6-((1R,2S)-2-aminocyclohexylamino)-2-(benzo[d]thiazol-7-ylamino)nicotinamide] is higher in pIC50: under 6.00 for the first, 8.00 to 9.00 for the second.

First: CC[C@@H](Nc1nc(Nc2cncc(OC)c2)c(C(N)=O)cc1F)C(N)=O [Example 232, (R)-6-(1-amino-1-oxobutan-2-ylamino)-5-fluoro-2-(5-methoxypyridin-3-ylamino)nicotinamide]
Second: CC(C)C[C@@H](Nc1nc(Nc2cccc(Cl)c2)c(C(N)=O)cc1F)C(N)=O [Example 265, (R)-6-(1-amino-4-methyl-1-oxopentan-2-ylamino)-5-fluoro-2-(3-chlorophenylamino)nicotinamide]
The pIC50 of the first is lower: 6.00 to 7.00 for the first, 7.00 to 8.00 for the second. The second is the more potent here.

First: Cc1cccc(Nc2cc(N[C@@H]3CCCC[C@@H]3N)ncc2C(N)=O)c1 (relative stereo) [Example 142, 6-(cis-2-aminocyclohexylamino)-4-(3-toluidino)nicotinamide]
Second: NC(=O)c1ccc(N[C@@H]2CCCC[C@@H]2N)nc1Nc1cncc(-n2ccnc2)c1 [Example 161, 2-(5-(1H-imidazol-1-yl)pyridin-3-ylamino)-6-((1R,2S)-2-aminocyclohexylamino)nicotinamide]
The pIC50 of the first is lower: under 6.00 for the first, 8.00 to 9.00 for the second.
